Measured values reported in PMC9241695, “Selective Metal Chelation by a Thiosemicarbazone Derivative Interferes with Mitochondrial Respiration and Ribosome Biogenesis in Candida albicans” (Microbiology Spectrum, 2022).
≈ marks a conversion by molar mass, not a printed value.

Key:
C. tropicalis CT2 = assay: Microbroth dilution MIC80; format: cell-based; settings: Candida tropicalis, CT2
Excerpt: (§1) Compound library. The thiosemicarbazone derivatives Triapine and COTI-2 were purchased from Med Chem Express (MCE). The other 87 thiosemicarbazones used in this study were previously synthesized by our collaborators (1, 2). Their structures are shown in Table 1 and Table S1 to help the reader clearly understand the relationship between structure and activity.
(§2) Strains and culture conditions. Clinically derived C. albicans isolates, including G5, F5, and Gu5, were kindly provided by Professor Joachim Morschhäuser of the University of Würzburg. Other clinical C. albicans isolates were kindly donated by Professor Qingguo Qi of Shandong University and Qianfoshan Hospital of Shandong Province Other Candida strains were obtained from Jinan Central Hospital.
(§3) The zap1 mutant and its complemented strain were kindly provided by Professor Aaron P. Mitchell of Carnegie Mellon University (3). The C. neoformans strains used in this study was kindly donated by Professor Guojian Liao of Southwest University and A. fumigatus strain used in this study was provided by Professor Ling Lu of Nanjing Normal University. Before in vitro and in vivo experiments, all C. albicans strains were grown on YPD agar plates. After culturing at 30°C for 24 h, colonies of each strain were cultured in liquid YPD medium at 30°C with continuous shaking […]
(§4) Antifungal susceptibility testing. To determine in vitro antifungal activities, the microbroth dilution method was carried out in RPMI1640 medium according to the guidelines of the Clinical and Laboratory Standards Institute (4, 5). The initial concentration in RPMI1640 medium was 1 × 10^3 CFU/mL for the C. albicans and C. neoformans suspensions but 1 × 10^4 CFU/mL for A. fumigatus. The range of final drug concentrations was 0.0156–64 μg/mL. The plates were incubated at35°C for 24 […]
(§5) h (for C. albicans, C. krusei, C. tropicalis, C. parapsilosis) or 48 h (for C. neoformans, A. fumigatus). The MIC was determined based on visible growth inhibition compared with the control. All experiments were performed in duplicate. […]

C. albicans 24g = assay: Microbroth dilution MIC80; format: cell-based; settings: Candida albicans, 24G
Excerpt: as §1, §2, §3, §4, §5

C. albicans 28D = assay: Microbroth dilution MIC80; format: cell-based; settings: Candida albicans, 28D
Excerpt: as §1, §2, §3, §4, §5

C. albicans YEM13 = assay: Microbroth dilution MIC80; format: cell-based; settings: Candida albicans
Excerpt: as §1, §2, §3, §4, §5

C. albicans CA1 = assay: Microbroth dilution MIC80; format: cell-based; settings: Candida albicans, CA1
Excerpt: as §1, §2, §3, §4, §5

C. albicans DSY654 = assay: Microbroth dilution MIC80; format: cell-based; settings: Candida albicans
Excerpt: as §1, §2, §3, §4, §5

C. albicans CA3 = assay: Microbroth dilution MIC80; format: cell-based; settings: Candida albicans, CA3
Excerpt: as §1, §2, §3, §4, §5

C. albicans CA4 = assay: Microbroth dilution MIC80; format: cell-based; settings: Candida albicans, CA4
Excerpt: as §1, §2, §3, §4, §5

C. albicans 11e = assay: Microbroth dilution MIC80; format: cell-based; settings: Candida albicans, 11E
Excerpt: as §1, §2, §3, §4, §5

C. albicans YEM15 = assay: Microbroth dilution MIC80; format: cell-based; settings: Candida albicans, YEM15
Excerpt: as §1, §2, §3, §4, §5

C. neoformans 108 = assay: Microbroth dilution MIC80; format: cell-based; settings: Cryptococcus neoformans, 108
Excerpt: as §1, §2, §3, §4, §5

A. fumigatus 1161 = assay: Microbroth dilution MIC80; format: cell-based; settings: Aspergillus fumigatus, 1161
Excerpt: as §1, §2, §3, §4, §5

C. albicans SC5314 = assay: Antifungal susceptibility testing, microbroth dilution MIC; format: cell-based; settings: Candida albicans, SC5314; C. albicans wild-type strain; RPMI1640, 35°C, 24 h; read-out: MIC (μg/mL) against fungi SC5314
Excerpt: as §1, §2, §3, §4, §5

C. parapsilosis CP001 = assay: Microbroth dilution MIC80; format: cell-based, Candida parapsilosis; settings: Lodderomyces parapsilosis, CP001
Excerpt: as §1, §2, §3, §4, §5

C. krusei CK1 = assay: Microbroth dilution MIC80; format: cell-based, Candida krusei; settings: Pichia kudriavzevii, CK1
Excerpt: as §1, §2, §3, §4, §5

C/C(=N\NC(=S)Nc1ccc(Br)cc1)c1ccccn1 [Compound 19t]
MIC80 (C. tropicalis CT2): 0.5 µg/mL (≈ 1.43 µM) | MIC80 (C. albicans 24g): 0.25 µg/mL (≈ 0.716 µM) | MIC80 (C. albicans 28D): 0.25 µg/mL (≈ 0.716 µM) | MIC80 (C. albicans YEM13): 1 µg/mL (≈ 2.86 µM) | MIC80 (C. albicans CA1): 0.25 µg/mL (≈ 0.716 µM) | MIC80 (C. albicans DSY654): 0.25 µg/mL (≈ 0.716 µM) | MIC80 (C. albicans CA3): 0.25 µg/mL (≈ 0.716 µM) | MIC80 (C. albicans CA4): 0.25 µg/mL (≈ 0.716 µM) | MIC80 (C. albicans 11e): 0.5 µg/mL (≈ 1.43 µM) | MIC80 (C. albicans YEM15): 1 µg/mL (≈ 2.86 µM) | MIC80 (C. neoformans 108): 0.031 µg/mL (≈ 0.0888 µM) | MIC80 (A. fumigatus 1161): 0.125 µg/mL (≈ 0.358 µM) | MIC (C. albicans SC5314): 0.5 µg/mL (≈ 1.43 µM) | MIC80 (C. parapsilosis CP001): 0.5 µg/mL (≈ 1.43 µM) | MIC80 (C. krusei CK1): 0.5 µg/mL (≈ 1.43 µM)
